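In this assay, cells in 96-well plates receive the compound at five concentrations for 48 hours. Endpoints are linearly interpolated between the surrounding concentrations. TGI: concentration producing complete growth inhibition.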
What was measured:
Experiment in all cases: NCI-60 cell line screen, 48 h
[1] = tested on: K-562 leukemia
[2] = tested on: MALME-3M melanoma
[3] = tested on: DMS 114 small cell lung
[4] = tested on: M14 melanoma
[5] = tested on: HCC-2998 colon
[6] = tested on: A498 renal
[7] = tested on: RPMI-8226 leukemia
[8] = tested on: SNB-78 CNS
[9] = tested on: A549 NSCLC
[10] = tested on: NCI-H460 lung
[11] = tested on: SNB-19 CNS
[12] = tested on: DMS 273 small cell lung
[13] = tested on: OVCAR-5 ovarian
[14] = tested on: OVCAR-4 ovarian
[15] = tested on: SR leukemia
[16] = tested on: SK-OV-3 ovarian
[17] = tested on: SW-620 colon
[18] = tested on: HOP-18 NSCLC
[19] = tested on: HCT-116 colon
[20] = tested on: UO-31 renal
[21] = tested on: NCI-H226 lung
[22] = tested on: OVCAR-8 ovarian
[23] = tested on: RXF 393 renal
[24] = tested on: SN12C renal
[25] = tested on: 786-0 renal
[26] = tested on: HOP-62 NSCLC
[27] = tested on: IGROV1 ovarian
[28] = tested on: SF-295 CNS
[29] = tested on: COLO 205 colon
[30] = tested on: UACC-62 melanoma
[31] = tested on: HL-60(TB) leukemia
[32] = tested on: NCI-H522 lung
[33] = tested on: U251 CNS
[34] = tested on: SK-MEL-5 melanoma
[35] = tested on: SNB-75 CNS
[36] = tested on: SK-MEL-28 melanoma
[37] = tested on: SF-268 CNS
[38] = tested on: SK-MEL-2 melanoma
[39] = tested on: CAKI-1 renal
[40] = tested on: DLD-1 colon
[41] = tested on: LXFL 529 NSCLC
[42] = tested on: EKVX NSCLC
[43] = tested on: XF 498 CNS
[44] = tested on: KM20L2 colon
[45] = tested on: OVCAR-3 ovarian
[46] = tested on: TK-10 renal
[47] = tested on: M19-MEL melanoma
[48] = tested on: NCI-H23 lung
[49] = tested on: UACC-257 melanoma
[50] = tested on: ACHN renal
[51] = tested on: KM12 colon
[52] = tested on: HCT-15 colon
[53] = tested on: HT29 colon
[54] = tested on: CCRF-CEM leukemia
[55] = tested on: LOX IMVI melanoma
[56] = tested on: MOLT-4 leukemia
[57] = tested on: SF-539 CNS
[58] = tested on: HOP-92 NSCLC

Cc1cc(Br)ccc1NC1=CC(=O)C(=O)c2ccccc21
TGI [1]: > 100 µM
TGI [2]: 53 µM
TGI [3]: 45 µM
TGI [4]: > 100 µM
TGI [5]: > 100 µM
TGI [6]: > 100 µM
TGI [7]: > 100 µM
TGI [8]: > 100 µM
TGI [9]: > 100 µM
TGI [10]: 78.2 µM
TGI [11]: > 100 µM
TGI [12]: > 100 µM
TGI [13]: > 100 µM
TGI [14]: 31.1 µM
TGI [15]: > 100 µM
TGI [16]: > 100 µM
TGI [17]: 89.1 µM
TGI [18]: 57.1 µM
TGI [19]: > 100 µM
TGI [20]: > 100 µM
TGI [21]: > 100 µM
TGI [22]: > 100 µM
TGI [23]: 69.6 µM
TGI [24]: > 100 µM
TGI [25]: > 100 µM
TGI [26]: > 100 µM
TGI [27]: > 100 µM
TGI [28]: > 100 µM
TGI [29]: > 100 µM
TGI [30]: 36.1 µM
TGI [31]: 38.5 µM
TGI [32]: > 100 µM
TGI [33]: > 100 µM
TGI [34]: 36.8 µM
TGI [35]: > 100 µM
TGI [36]: > 100 µM
TGI [37]: > 100 µM
TGI [38]: > 100 µM
TGI [39]: 53.1 µM
TGI [40]: > 100 µM
TGI [41]: > 100 µM
TGI [42]: > 100 µM
TGI [43]: 89.1 µM
TGI [44]: > 100 µM
TGI [45]: > 100 µM
TGI [46]: > 100 µM
TGI [47]: 29.5 µM
TGI [48]: 32.4 µM
TGI [49]: 39.4 µM
TGI [50]: > 100 µM
TGI [51]: > 100 µM
TGI [52]: > 100 µM
TGI [53]: > 100 µM
TGI [54]: > 100 µM
TGI [55]: 48.5 µM
TGI [56]: > 100 µM
TGI [57]: > 100 µM

CCN(CC)C(=O)c1c(Cl)cc(N(CC)CC)oc1=O
TGI [1]: > 100 µM
TGI [2]: > 100 µM
TGI [3]: > 100 µM
TGI [4]: > 100 µM
TGI [5]: > 100 µM
TGI [6]: > 100 µM
TGI [7]: > 100 µM
TGI [8]: > 100 µM
TGI [9]: > 100 µM
TGI [10]: > 100 µM
TGI [11]: > 100 µM
TGI [12]: > 100 µM
TGI [14]: > 100 µM
TGI [15]: > 100 µM
TGI [16]: > 100 µM
TGI [17]: > 100 µM
TGI [18]: > 100 µM
TGI [19]: > 100 µM
TGI [20]: > 100 µM
TGI [21]: > 100 µM
TGI [22]: > 100 µM
TGI [23]: > 100 µM
TGI [24]: > 100 µM
TGI [25]: > 100 µM
TGI [26]: > 100 µM
TGI [27]: > 100 µM
TGI [28]: > 100 µM
TGI [58]: > 100 µM
TGI [29]: > 100 µM
TGI [30]: > 100 µM
TGI [31]: > 100 µM
TGI [32]: > 100 µM
TGI [33]: > 100 µM
TGI [35]: > 100 µM
TGI [36]: > 100 µM
TGI [37]: > 100 µM
TGI [38]: > 100 µM
TGI [40]: > 100 µM
TGI [41]: > 100 µM
TGI [42]: > 100 µM
TGI [43]: > 100 µM
TGI [44]: > 100 µM
TGI [45]: > 100 µM
TGI [46]: > 100 µM
TGI [47]: > 100 µM
TGI [48]: > 100 µM
TGI [49]: > 100 µM
TGI [50]: > 100 µM
TGI [51]: > 100 µM
TGI [52]: > 100 µM
TGI [53]: > 100 µM
TGI [54]: > 100 µM
TGI [55]: > 100 µM
TGI [56]: > 100 µM
TGI [57]: > 100 µM
